Test results as given in patent US20150368195A1, “INDOLINE COMPOUNDS FOR TREATMENT AND/OR PREVENTION OF INFLAMMATION DISEASES” (Taipei Medical University, priority 2014, published 2015).
Entries after “also recorded” stand apart in the source; their conditions may differ.

Experiments:
prostaglandin E2 (PGE2) = experiment: LPS-induced PGE2 production by RA-FLS; assay type: cell-based; settings: MPT0G009 0.1, 1, 10 μM; SAHA 0.3, 3, 30 μM; LPS 25 ng/mL 24 h
Procedure: (§1) (FIG. 1A) Structure of MPT0G009. […] Results in (FIGS. 1B-E) and (FIG. 1G) are means±SEM's for three independent experiments, *p<0.05 and **p<0.01 compared with no added inhibitor.
Furthermore, the anti-inflammatory effects of MPT0G009 was evaluated. […] These supernatants were then assayed for PGE2, NO, and IL-6.

p21 = p21 expression by flow cytometry or western blot in RA-FLS; assay type: cell-based; settings: 24 h, 1 μM MPT0G009 or 3 μM SAHA
From the text: as §1

NFATc1 = experiment: RANKL-induced NFATc1 luciferase reporter in RAW264.7 cells; assay type: cell-based, Mouse; settings: 5 nM MPT0G009; RANKL 24 h
Procedure: Cells were then tartrate resistant acid phosphatase (TRAP) stained, and the numbers of TRAP-positive multinuclear cells were counted. […] Images are at ×100 magnification, and the arrows indicate differentiated osteoclasts. (FIG. 6C) RAW264.7 cells were treated as in (FIG. 6B), then incubated with a fluorescein isothiocyanate (FITC)-conjugated anti-CD51/61 antibody and analyzed by flow cytometry. (FIGS. 6D and 6E) RAW264.7 cells (1×10^5) were transfected with 1 μg of pGL4.32[luc2P/NF-κB-RE/Hygro] (FIG. 6D) or pGL4.30[luc2P/NFAT-RE/Hygro] (FIG. 6E) for 24 h and then incubated for 30 min with or without MPT0G009 (5 nM). Then RANKL (50 ng/mL) was added and incubation was continued for an additional 24 h, after which luciferase activity was determined. Results in (FIGS. 6A, 6D, and 6E) are the means±SEM's for three independent experiments. **p<0.01 compared with the indicated controls.
We also assessed the effect of MTPOG009 on the DNA-binding activity of NF-kB and NFATc1, two pivotal transcriptional factors involved in RANKL-induced pathways for promoting osteoclast differentiation. When RAW264.7 cells that had been transiently transfected with reporter plasmids were treated with 5 nM MPT0G009 for 30 min before and during 24-h stimulation with RANKL, MPT0G009 inhibited RANKL-induced NF-kB (FIG. 6d) and NFATc1 (FIG. 6e) luciferase activity.

CTGF = experiment: pro-fibrogenic mediator-induced CTGF production, Western blot; assay type: cell-based, human; settings: WI-38 lung fibroblasts
Procedure: Western blot analysis was performed. First, WI-38 lung fibroblasts were incubated with different concentrations of MPT0E028 (0.01, 0.03, 0.1, 0.3, or 1 μM) (FIG. 10A) or MPT0G009 (0.01, 0.03, 0.1, 0.3, or 1 μM) (FIG. 10B) for 30 min before and during incubation for 2 h with TGF-β (10 ng/mL). WI-38 lung fibroblasts were incubated with 1 μM MPT0E028 and MPT0G009 for 30 min and following another incubation for 2 h with 1 U/ml thrombin (FIG. 10C) and 10 nM ET-1 (FIG. 10D). The collagen I production from WI-38 lung fibroblasts stimulated by 10 ng/mL TGF-β for 24 h was inhibited with 1 μM MPT0E028 and MPT0G009 pretreatment (FIG. 10E).
WI-38 cells, a normal human embryonic lung fibroblast cell line, were obtained from American Type Culture Collection (Manassas, Va.). Cells were grown in MEM nutrient mixture, containing 10% FCS, 2 mM L-glutamine, 0.1 mM NEAA, 1 mM sodium pyruvate, 50 U/ml penicillin G, and 100 μg/ml streptomycin, in a humidified 37° C. incubator with 5% CO2 Cells were used between passages 18 and 30 for all experiments. After reaching confluence, cells were seeded onto 6-cm dishes for immunoblotting.
Western blot analyses were performed as described previously (Chen B C, Chang Y S, Kang J C, Hsu M J, Sheu J R, Chen T L, et al. Peptidoglycan induces nuclear factor-kappaB activation and cyclooxygenase-2 expression via Ras, Raf-1, and ERK in RAW 264.7 macrophages. J Biol Chem 2004; 279:20889-97). Briefly, WI-38 lung fibroblasts were cultured in 6-cm dishes. After reaching confluence, cells were pretreated with specific inhibitors (E028 and G009) as indicated for 30 min, and then treated with the vehicle (H2O) or 10 ng/ml TGF-β for 2 h (CTGF assay) or 24 h (collagen I assay). Whole-cell lysates ([…]) were subjected to 12% (CTGF) or 8% (collagen I) SDS-PAGE, and transferred onto a polyvinylidene difluoride membrane which was then incubated in TBST buffer (150 mM NaCl, 20 mM Tris-HCl, and 0.02% Tween 20; pH 7.4) containing 5% BSA. Proteins were visualized by specific primary antibodies and then incubated with HRP-conjugated secondary antibodies. The immunoreactivity was detected using enhanced chemiluminescence (ECL) following the manufacturer's instructions. Quantitative data were obtained using a computing densitometer with scientific imaging systems (Kodak, Rochester, N.Y.).
To determine whether the inhibitory effects of MPT0E028 and MPT0G009 on pro-fibrogenic mediators (TGF-β, thrombin, and ET-1) were related to the modulation of CTGF and Collagen I production, Western blot analysis was performed. First, WI-38 lung fibroblasts were incubated with different concentrations of MPT0E028 (0.01, 0.03, 0.1, 0.3, or 1 μM) (FIG. 10A) or MPT0G009 (0.01, 0.03, 0.1, 0.3, or 1 μM) (FIG. 10B) for 30 min before and during incubation for 2 h with TGF-β (10 ng/mL). […] Furthermore, we examined the effects of MPT0E028 and MPT0G009 on other pro-fibrogenic mediators. As shown in FIGS. 10C and 10D, WI-38 lung fibroblasts were incubated with 1 μM MPT0E028 and MPT0G009 for 30 min and following another incubation for 2 h with 1 U/ml thrombin (FIG. 10C) and 10 nM ET-1 (FIG. 10D).

[1] = tested on: carrageenan-induced hind paw edema; experiment: carrageenan-induced hind paw edema
Procedure: A 0.5% (w/v) suspension of carrageenan in normal saline was administered to male Wistar rats (7-weeks) by intradermal injection into the base of the right hind paw. […] A positive control group was included in which rats were pretreated with 5 mg/kg Indomethacin. […] The results are expressed as the mean±SEM, with n=5. *p<0.05 compared to the control group; #p<0.05 for the comparison of the indicated groups.
Animals were divided into four groups (n=5). 0.5% (w/v) suspension of carrageenan in normal saline was administered to male Wistar rats (7-weeks) by intradermal injection into the base of the right hind paw. […] A positive control group was included in which rats were pretreated with 5 mg/kg Indomethacin. Three hours after carrageenan administration, the thickness and volume of the right hind paw were measured by digital caliper and digital plethysmometer (Diagnostic & Research Instruments CO., Ltd, Taipei, Taiwan), respectively.

[2] = tested on: adjuvant-induced arthritis; experiment: adjuvant-induced arthritis (AIA) model; settings: MPT0G009 25 mg/kg
Procedure: (FIG. 8B) Hind paw volumes in the indicated group of rats were measured using a digital plethysmometer on the indicated day after AIA induction. […] (FIG. 8D) Serum levels of interleukin (IL)-1β (left panel) and IL-6 (right panel) on day 21 as measured by enzyme-linked immunosorbent assay (ELISA). […] (FIG. 8F) The bone mineral density (BMD, in mg/mm^3) and the bone mineral content (BMC, in mg) values for the bone tissue of the tarsus were analyzed using CT Analysis Software.

[3] = day 21, ELISA, SAHA 200 mg/kg, indomethacin 1 mg/kg
[4] = oral daily days 2 to 21, SAHA 200 mg/kg, indomethacin 1 mg/kg, vs vehicle

## COc1ccc(S(=O)(=O)N2CCc3cc(C=CC(=O)NO)ccc32)cc1 [Compound 9, 3-[1-(4-methoxybenzenesulfonyl)-2,3-dihydro-1H-indol-5-yl]-N-Hydroxyacrylamide]
Prostaglandin E2 (PGE2)
  PGE2 production by RA-FLS: inhibited
p21
  expression of p21: significantly increased
NFATc1
  RANKL-induced NFATc1 luciferase activity: inhibited
CTGF; 1 μM, 10 nM ET-1 2 h
  ET-1-induced CTGF expression: inhibited
CTGF; 1 μM, 1 U/ml thrombin 2 h
  thrombin-induced CTGF expression: inhibited
CTGF; 0.01-1 μM, TGF-β 10 ng/mL 2 h
  TGF-β-induced CTGF production: significantly inhibited
[1]; compound 9 25 mg/kg oral, 3 h after carrageenan
  paw thickness reduced compared to control: 21.3%
[1]; oral, 1 h before carrageenan, compound 9 25 mg/kg, SAHA 200 mg/kg, Indomethacin 5 mg/kg, measured 3 h after
  carrageenan-induced hind paw edema: significantly inhibited; also recorded: suppress
[2]
  bone destruction (micro-computed tomography): ameliorated
  bone mineral density (BMD) and bone mineral content (BMC): prevented the decrease
  cartilage degradation (safranin O staining of ankle joints): markedly reduced
  decrease of osteoblasts: apparently ameliorated
  formation of osteoclasts (TRAP stain): significantly decreased
  leukocyte infiltration, synovitis (hematoxylin and eosin staining): significantly reduced
  levels of acetyl-histone H3 (immunohistochemical staining): increased levels
[2]; 25 mg/kg
  synoviocytes proliferation and inflammation (KI-67, COX-2 staining): inhibition; also recorded: suppresses
[2]; [3]
  serum levels of IL-1β: significant decreases
  serum levels of IL-6: significant decreases
[2]; day 21, SAHA 200 mg/kg, indomethacin 1 mg/kg, vs vehicle
  arthritis scores: significant reductions
[2]; [4]
  paw swelling: significant reductions
  paw volume: significant reductions
